# Laboratory results as given in patent publication US20250277012A1 (Protagonist Therapeutics, Inc., priority 2021, published 2025).
# Starred links: 1 amine or outer side, 2 acyl side, 3 side chain; linkers in the order of their positions; H or OH if unused. Positions of bridges follow the written chain, without caps; N, C: chain ends. Non-standard residues stand in square brackets, D forms with d. Residues, ends and D or L forms follow the SMILES beside them. Groups on a side chain read outwards from the residue. *: point of attachment. Phe(4-CF3) = N[C@@H](Cc1ccc(C(F)(F)F)cc1)C(=O)O; Bip = N[C@@H](Cc1ccc(-c2ccccc2)cc1)C(=O)O; C18 diacid = O=C(O)CCCCCCCCCCCCCCCCC(=O)*; Dip = N[C@H](C(=O)O)C(c1ccccc1)c1ccccc1; γGlu = O=C(O)[C@H](CCC(=O)[*:2])N[*:1]; Palmitoyl = CCCCCCCCCCCCCCCC(=O)*; NMeF = CN[C@@H](Cc1ccccc1)C(=O)O; NMeT = CN[C@H](C(=O)O)[C@@H](C)O; β3hF = N[C@H](CC(=O)O)Cc1ccccc1; dPen = CC(C)(S)[C@@H](N)C(=O)O; NMeK = CN[C@@H](CCCCN)C(=O)O; dNMeK = CN[C@H](CCCCN)C(=O)O; Isovaleryl = CC(C)CC(=O)*; hCys = N[C@@H](CCS)C(=O)O; Dap = NC[C@H](N)C(=O)O; AEEA = NCCOCCOCC(=O)O; Ahx = NCCCCCC(=O)O
# Molecular target: T1, ferroportin (Homo sapiens, UniProt Q9NP59)
# T1 sequence (Q9NP59 1-571): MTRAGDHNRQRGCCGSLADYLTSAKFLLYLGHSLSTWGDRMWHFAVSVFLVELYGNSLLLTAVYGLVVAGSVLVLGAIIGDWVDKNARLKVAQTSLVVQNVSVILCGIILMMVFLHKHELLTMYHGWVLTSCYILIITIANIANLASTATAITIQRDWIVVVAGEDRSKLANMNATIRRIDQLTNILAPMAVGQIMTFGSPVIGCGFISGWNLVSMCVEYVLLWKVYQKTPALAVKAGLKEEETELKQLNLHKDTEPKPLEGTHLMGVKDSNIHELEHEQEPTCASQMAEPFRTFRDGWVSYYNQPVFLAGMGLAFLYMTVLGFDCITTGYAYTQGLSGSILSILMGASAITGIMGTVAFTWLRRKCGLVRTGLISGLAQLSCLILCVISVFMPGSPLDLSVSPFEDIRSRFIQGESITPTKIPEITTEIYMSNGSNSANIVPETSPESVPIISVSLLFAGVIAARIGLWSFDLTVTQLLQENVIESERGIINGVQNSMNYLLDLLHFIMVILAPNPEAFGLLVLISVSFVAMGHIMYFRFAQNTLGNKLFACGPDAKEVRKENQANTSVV
# Experiment: FPN activity assay: ferroportin-GFP internalization/degradation in HEK293 cells
# Type: cell-based
# Parameters: expressed in transfected cells
# Settings: Table 6D; ferroportin-GFP internalization/degradation, at least 18 hours incubation; read-out: FPN IC50
# Protocol: Following internalization, the ferroporin protein is degraded.
# A retro inverse peptide is a peptide with a reversed sequence in all D amino acids. An example is that Hy-Glu-Thr-His-NH2 becomes Hy-DHis-DThr-DGlu-NH2. The EC50 of these reference compounds for ferroportin internalization/degradation was determined according to the FPN activity assay described above. These peptides served as control standards.
row,SMILES,DC50 [nM]
1,CCCCCCCCCCCCCCCC(=O)NCC[N+](C)(C)CC(=O)NCCCC[C@H](NC(=O)[C@@H]1CSSC[C@H](NC(=O)[C@H](CCC(=O)O)NC(=O)CC(C)C)C(=O)N[C@@H](Cc2c[nH]cn2)C(=O)N[C@@H](C(c2ccccc2)c2ccccc2)C(=O)N1)C(=O)NCCCCC [compound 124],100 to 500

# Same assay, conditions: Table 6E; ferroportin-GFP internalization/degradation, at least 18 hours incubation; read-out: FPN IC50
row,SMILES,DC50 [nM]
1,COC(=O)CC[C@H](NC(=O)CC(C)C)C(=O)N(C)[C@H](C(=O)N[C@@H](Cc1c[nH]cn1)C(=O)N[C@H](C(=O)N1CCC[C@H]1C(=O)N[C@H]1CSSC[C@@H](C(=O)N(C)[C@@H](Cc2ccccc2)C(N)=O)NC1=O)C(c1ccccc1)c1ccccc1)[C@@H](C)O [compound 184] (Isovaleryl-E(OMe)[NMeT]H[Dip]PCC[NMeF]-NH2; disulfide 6-7),> 500

# Same assay, conditions: ferroportin-GFP HEK293 cells, at least 18 hours; read-out: FPN IC50
row,SMILES,DC50 [nM]
1,CCCCCCCCCCCCCCCC(=O)NCCCCCC(=O)NCCCC[C@H](NC(=O)[C@@H](NC(=O)[C@@H]1CCSSCC[C@H](NC(=O)CC(C)C)C(=O)N[C@@H](CCC(=O)O)C(=O)N[C@@H]([C@@H](C)O)C(=O)N[C@@H](Cc2c[nH]cn2)C(=O)N[C@@H](C(c2ccccc2)c2ccccc2)C(=O)N2CCC[C@H]2C(=O)N1)[C@@H](C)CC)C(=O)N[C@H](CC(N)=O)Cc1ccccc1 [Compd 15] (Isovaleryl-[hCys]ETH[Dip]P[hCys]IK([Ahx-Palmitoyl])[β3hF]-NH2; disulfide 1-7),> 500
2,CC[C@H](C)[C@H](NC(=O)[C@@H]1CSSC[C@H](NC(=O)[C@H](Cc2c[nH]cn2)NC(=O)[C@@H](NC(=O)[C@H](CCC(=O)O)NC(=O)CC(C)C)[C@@H](C)O)C(=O)N2CCC[C@H]2C(=O)N1)C(=O)N[C@H](CCCCN)C(=O)N[C@H](CC(=O)N[C@@H](CCCCNC(=O)COCCOCCNC(=O)COCCOCCNC(=O)CC[C@H](NC(=O)CCCCCCCCCCCCCCCCC(=O)O)C(=O)O)C(=O)N[C@H](CCCCN)C(N)=O)Cc1ccccc1 [Compd 33] (Isovaleryl-ETHCPCI[dK][β3hF]K([AEEA-AEEA-γGlu-C18 diacid])[dK]-NH2; disulfide 4-6),> 500
3,"CCCCCCCCCCCCCCCC(=O)NCCCCCC(=O)NCCCC[C@H](NC(=O)C[C@H](Cc1ccccc1)NC(=O)[C@@H](CCCCN)NC(=O)[C@@H](NC(=O)[C@@H]1CSSC[C@H](NC(=O)[C@@H](NC(=O)[C@H](CCC(=O)O)NC(=O)CC(C)C)[C@@H](C)O)C(=O)N[C@@H](C(c2ccccc2)c2ccccc2)C(=O)N2CCC[C@H]2C(=O)N1)[C@@H](C)CC)C(=O)N[C@H](CCCCN)C(N)=O [Compd ID 2, Isovaleric Acid-E-T-[Cys]-[Dpa]-P-[Cys]-I-[(D)Lys]-[bhPhe]-[Lys(Ahx_Palm)]-[(D)Lys]-NH2] (Isovaleryl-ETC[Dip]PCI[dK][β3hF]K([Ahx-Palmitoyl])[dK]-NH2; disulfide 3-6)",100 to 500
4,CCCCCCCCCCCCCCCC(=O)NCCCCCC(=O)NCCCC[C@H](NC(=O)C[C@H](Cc1ccccc1)NC(=O)[C@@H]1NC(=O)[C@H]([C@@H](C)CC)NC(=O)[C@H](C)NC(=O)[C@@H]2CCCN2C(=O)[C@H](C(c2ccccc2)c2ccccc2)NC(=O)[C@H](Cc2c[nH]cn2)NC(=O)[C@H]([C@@H](C)O)NC(=O)[C@@H](NC(=O)CC(C)C)CSSC1(C)C)C(=O)N[C@H](CCCCN)C(N)=O [compound 104] (Isovaleryl-CTH[Dip]PAI[dPen][β3hF]K([Ahx-Palmitoyl])[dK]-NH2; disulfide 1-8),10 to 100
5,CC[C@H](C)[C@H](NC(=O)[C@@H]1CSSC[C@H](NC(=O)[C@H](Cc2c[nH]cn2)NC(=O)[C@@H](NC(=O)[C@H](CCC(=O)O)NC(=O)CC(C)C)[C@@H](C)O)C(=O)N2CCC[C@H]2C(=O)N1)C(=O)N[C@@H](CCCCNC(=O)COCCOCCNC(=O)COCCOCCNC(=O)CC[C@H](NC(=O)CCCCCCCCCCCCCCCCC(=O)O)C(=O)O)C(=O)N[C@H](CC(=O)N[C@H](CCCCN)C(N)=O)Cc1ccccc1 [Compd 29] (Isovaleryl-ETHCPCIK([AEEA-AEEA-γGlu-C18 diacid])[β3hF][dK]-NH2; disulfide 4-6),100 to 500
6,CCCCCCCCCCCCCCCC(=O)NCCCCCC(=O)NCCCC[C@H](NC(=O)[C@@H](NC(=O)[C@@H]1CSSC[C@H](NC(C)=O)C(=O)N[C@@H](CCC(=O)O)C(=O)N[C@@H]([C@@H](C)O)C(=O)N[C@@H](Cc2c[nH]cn2)C(=O)N[C@@H](C(c2ccccc2)c2ccccc2)C(=O)N2CCC[C@H]2C(=O)N1)[C@@H](C)CC)C(=O)N[C@H](CC(N)=O)Cc1ccccc1 [Compd 9] (Ac-CETH[Dip]PCIK([Ahx-Palmitoyl])[β3hF]-NH2; disulfide 1-7),100 to 500
7,CCCCCCCCCCCCCCCC(=O)NCCCCCC(=O)NCCCC[C@H](NC(=O)C[C@H](Cc1ccccc1)NC(=O)[C@@H]1CSSC[C@H](NC(=O)[C@@H]2CCCN2C(=O)[C@@H](NC(=O)[C@H](Cc2c[nH]cn2)NC(=O)[C@@H](NC(=O)[C@H](CCC(=O)O)NC(=O)CC(C)C)[C@@H](C)O)C(c2ccccc2)c2ccccc2)C(=O)N[C@@H]([C@@H](C)CC)C(=O)N1)C(=O)N[C@H](CCCCN)C(N)=O [Compd 8] (Isovaleryl-ETH[Dip]PCIC[β3hF]K([Ahx-Palmitoyl])[dK]-NH2; disulfide 6-8),100 to 500
8,CCCCCCCCCCCCCCCC(=O)NCCCCCC(=O)NCCCC[C@H](NC(=O)[C@@H](NC(=O)[C@@H]1CCSSCC[C@H](NC(C)=O)C(=O)N[C@@H](CCC(=O)O)C(=O)N[C@@H]([C@@H](C)O)C(=O)N[C@@H](Cc2c[nH]cn2)C(=O)N[C@@H](C(c2ccccc2)c2ccccc2)C(=O)N2CCC[C@H]2C(=O)N1)[C@@H](C)CC)C(=O)N[C@H](CC(N)=O)Cc1ccccc1 [Compd 14] (Ac-[hCys]ETH[Dip]P[hCys]IK([Ahx-Palmitoyl])[β3hF]-NH2; disulfide 1-7),100 to 500

# Same assay, conditions: ferroportin-GFP internalization/degradation, HEK293 cells; Table 6E; read-out: FPN IC50
row,SMILES,DC50 [nM]
1,CC(C)CC(=O)N[C@@H](CCC(=O)O)C(=O)N[C@H](C(=O)N[C@@H](Cc1ccc(-c2ccccc2)cc1)C(=O)N[C@H](C(=O)N1CCC[C@H]1C(=O)N[C@H]1CSSC[C@@H](C(=O)N(C)[C@@H](CCCCNC(=O)COCCOCCNC(=O)COCCOCCNC(=O)[C@H](CN)NC(=O)CCCCCCCCCCCCCCCCC(=O)O)C(=O)N[C@H](CC(=O)N[C@H](CCCCN)C(N)=O)Cc2ccccc2)NC1=O)C(c1ccccc1)c1ccccc1)[C@@H](C)O [compound 297] (Isovaleryl-ET[Bip][Dip]PCC[NMeK]([AEEA-AEEA-Dap-C18 diacid])[β3hF][dK]-NH2; disulfide 6-7),> 500
2,CC(=O)NCCCC[C@H](C(N)=O)N(C)C(=O)C[C@H](Cc1ccccc1)NC(=O)[C@H](CCCCNC(=O)COCCOCCNC(=O)COCCOCCNC(=O)[C@H](CN)NC(=O)CCCCCCCCCCCCCCCCC(=O)O)N(C)C(=O)[C@@H]1CSSC[C@H](NC(=O)[C@@H]2CCCN2C(=O)[C@@H](NC(=O)[C@H](Cc2c[nH]cn2)NC(=O)[C@@H](NC(=O)[C@H](CCC(=O)O)NC(=O)CC(C)C)[C@@H](C)O)C(c2ccccc2)c2ccccc2)C(=O)N1 [compound 267] (Isovaleryl-ETH[Dip]PCC[NMeK]([AEEA-AEEA-Dap-C18 diacid])[β3hF][dNMeK](Ac)-NH2; disulfide 6-7),100 to 500
3,CC(C)CC(=O)N[C@@H](CCC(=O)O)C(=O)N[C@H](C(=O)N[C@@H](Cc1ccc(C(F)(F)F)cc1)C(=O)N[C@H](C(=O)N1CCC[C@H]1C(=O)N[C@H]1CSSC[C@@H](C(=O)N(C)[C@@H](CCCCNC(=O)COCCOCCNC(=O)COCCOCCNC(=O)[C@H](CN)NC(=O)CCCCCCCCCCCCCCCCC(=O)O)C(=O)N[C@H](CC(=O)N[C@H](CCCCN)C(N)=O)Cc2ccccc2)NC1=O)C(c1ccccc1)c1ccccc1)[C@@H](C)O [compound 286] (Isovaleryl-ET[Phe(4-CF3)][Dip]PCC[NMeK]([AEEA-AEEA-Dap-C18 diacid])[β3hF][dK]-NH2; disulfide 6-7),100 to 500
